# Legend:
# Format in all cases: physicochemical
# [1] = thermodynamic based polymorph screen; conditions: for new crystal forms / polymorphs detected: besylate suspended in different solvents, three months
# Procedure: A thermodynamic based polymorph screen was conducted with crystalline (1S,5S)-3-(5,6-dichloropyridin-3-yl)-3,6-diazabicyclo[3.2.0]heptane benzenesulfonate. The benzenesulfonate salt was suspended in different solvents including water, ethanol, acetonitrile, methanol, N,N-dimethylformamide, ethyl acetate, 1,4-dioxane, chloroform, pyridine, nitromethane, PEG 400 and […] water/methanol. […] This difference between the benzenesulfonate and 4-methylbenzenesulfonate salts is unexpected considering the structural similarities of the two acids. The lack of different physical forms is an advantage to chemical and physical processing operations.
# [2] = intrinsic dissolution rate at 37° C.
# [3] = solid state stability at 40° C. in the dark at 75% relative humidity; conditions: 75% RH
# Procedure: Crystalline (1S,5S)-3-(5,6-dichloropyridin-3-yl)-3,6-diazabicyclo[3.2.0]heptane benzenesulfonate was tested for solid state stability at 40° C. in the dark at 75% relative humidity.
# [4] = hygroscopicity (relative humidity adsorption/desorption isotherms); conditions: relative to acetate, citrate, maleate, methanesulfonate, 4-methylbenzenesulfonate and sulfate salts, FIGS. 1-7
# Procedure: Relative humidity isotherms were collected using a VTI SGA-100 Symmetric Vapor Sorption Analyzer. About 2 to 30 mg of sample is added to the system. The relative humidity is held constant at each step until a constant weight equilibrium is achieved or a maximum of six hours per step.
smiles,measurement,setting,value
"Cc1ccc(S(=O)(=O)O)cc1.Clc1cc(N2C[C@@H]3CN[C@@H]3C2)cnc1Cl [4-methylbenzenesulfonate salt, (1S,5S)-3-(5,6-dichloropyridin-3-yl)-3,6-diazabicyclo[3.2.0]heptane 4-methylbenzenesulfonate]",unique crystal forms isolated/characterized,[1],three unique crystal forms
same,new crystal forms / polymorphs detected,[1],multiple polymorphs were discovered
"Clc1cc(N2C[C@@H]3CN[C@@H]3C2)cnc1Cl.O=S(=O)(O)c1ccccc1 [(1S,5S)-3-(5,6-dichloropyridin-3-yl)-3,6-diazabicyclo[3.2.0]heptane Benzenesulfonate]",intrinsic dissolution rate,[2]; pH 1.0,8.5 mg/min·cm^2
same,intrinsic dissolution rate,[2]; pH 6.8,10.1 mg/min·cm^2
same,% remaining,[3]; 0 week,99.72 ± 0.56%
same,% remaining,[3]; 1 week,100.66 ± 0.51%
same,% remaining,[3]; 2 week,99.47 ± 1.72%
same,% remaining,[3]; 4 week,100.22 ± 0.59%
same,% remaining,[3]; 6 week,100.53 ± 0.20%
same,% remaining,[3]; 8 week,100.93 ± 0.37%
same,% remaining,[3]; 12 week,100.84 ± 0.47%
same,unique crystal forms isolated/characterized,[1],only one
same,new crystal forms / polymorphs detected,[1],No new crystal forms were detected
same,hygroscopicity,[4],lower hygroscopicity relative to other salts
O=C(O)[C@H](O)[C@@H](O)C(=O)O [(L)-tartrate],new crystal forms / polymorphs detected,[1],multiple polymorphs were discovered
"Clc1cc(N2C[C@@H]3CN[C@@H]3C2)cnc1Cl.O=S(=O)(O)O [sulfate, (1S,5S)-3-(5,6-dichloropyridin-3-yl)-3,6-diazabicyclo[3.2.0]heptane sulfate]",new crystal forms / polymorphs detected,[1],multiple polymorphs were discovered
